Results from paper PMC9532703, “A novel small molecule RK-019 inhibits FGFR2-amplification gastric cancer cell proliferation and induces apoptosis in vitro and in vivo” (Frontiers in Pharmacology, 2022).

Assays:
Test in all cases: Kinase selectivity panel
Assay type in all cases: biochemical
Settings in all cases: read-out: Inhibition(%) @ 1 µM RK-019
[1] = target: T1, NEK7(h) (Homo sapiens, UniProt Q8TDX7)
T1 construct: purchased Eurofins Discovery Services (KinaseProfiler)
How it was run: (§1)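 Single-point selectivity screen: 1 µM compound, recombinant human enzyme, in vitro ATP-site competition binding; result expressed as inhibition ratio.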

[2] = target: T2, CK1γ3(h) (Homo sapiens, UniProt Q9Y6M4)
T2 construct: purchased Eurofins Discovery Services (KinaseProfiler)
How it was run: as §1

[3] = target: T3, Met(Y1248H)(h) (Homo sapiens, UniProt P08581, Y1230H)
T3 construct: purchased Eurofins Discovery Services (KinaseProfiler)
How it was run: as §1

[4] = target: T4, MST1(h) (Homo sapiens, UniProt Q13043)
T4 construct: purchased Eurofins Discovery Services (KinaseProfiler)
T4 sequence (Q13043 whole entry): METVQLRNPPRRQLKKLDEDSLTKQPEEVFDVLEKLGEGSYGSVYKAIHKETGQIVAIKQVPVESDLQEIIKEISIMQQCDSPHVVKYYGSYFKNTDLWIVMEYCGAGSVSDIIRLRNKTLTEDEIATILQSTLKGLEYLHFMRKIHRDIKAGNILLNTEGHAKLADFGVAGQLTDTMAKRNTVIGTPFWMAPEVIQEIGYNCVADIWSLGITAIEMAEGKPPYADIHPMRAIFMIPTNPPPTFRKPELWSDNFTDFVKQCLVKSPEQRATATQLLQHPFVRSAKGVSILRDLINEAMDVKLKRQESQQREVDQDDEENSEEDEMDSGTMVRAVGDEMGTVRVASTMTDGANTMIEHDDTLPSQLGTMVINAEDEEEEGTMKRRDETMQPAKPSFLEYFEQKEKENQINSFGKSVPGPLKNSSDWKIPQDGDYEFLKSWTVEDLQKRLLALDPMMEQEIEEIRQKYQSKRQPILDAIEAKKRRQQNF
How it was run: as §1

[5] = target: T5, Cdc7/cyclinB1(h) (Homo sapiens, UniProt O00311)
T5 construct: purchased Eurofins Discovery Services (KinaseProfiler)
How it was run: as §1

[6] = target: T6, IRAK1(h) (Homo sapiens, UniProt P51617)
T6 construct: purchased Eurofins Discovery Services (KinaseProfiler)
How it was run: as §1

[7] = target: T7, CK1ε(h) (Homo sapiens, UniProt P49674)
T7 construct: purchased Eurofins Discovery Services (KinaseProfiler)
How it was run: as §1

[8] = target: T8, NEK9(h) (Homo sapiens, UniProt Q8TD19)
T8 construct: purchased Eurofins Discovery Services (KinaseProfiler)
How it was run: as §1

[9] = target: T9, Fms(h) (Homo sapiens, UniProt P07333)
T9 construct: purchased Eurofins Discovery Services (KinaseProfiler)
How it was run: as §1

[10] = target: T10, Abl (Q252H) (h) (Homo sapiens, UniProt P00519, Q252H)
T10 construct: purchased Eurofins Discovery Services (KinaseProfiler)
How it was run: as §1

[11] = target: T11, GSK3α(h) (Homo sapiens, UniProt P49840)
T11 construct: purchased Eurofins Discovery Services (KinaseProfiler)
How it was run: as §1

[12] = target: T12, TAO1(h) (Homo sapiens, UniProt Q7L7X3)
T12 construct: purchased Eurofins Discovery Services (KinaseProfiler)
How it was run: as §1

[13] = target: T13, EphB1(h) (Homo sapiens, UniProt P54762)
T13 construct: purchased Eurofins Discovery Services (KinaseProfiler)
T13 sequence (P54762 18-984): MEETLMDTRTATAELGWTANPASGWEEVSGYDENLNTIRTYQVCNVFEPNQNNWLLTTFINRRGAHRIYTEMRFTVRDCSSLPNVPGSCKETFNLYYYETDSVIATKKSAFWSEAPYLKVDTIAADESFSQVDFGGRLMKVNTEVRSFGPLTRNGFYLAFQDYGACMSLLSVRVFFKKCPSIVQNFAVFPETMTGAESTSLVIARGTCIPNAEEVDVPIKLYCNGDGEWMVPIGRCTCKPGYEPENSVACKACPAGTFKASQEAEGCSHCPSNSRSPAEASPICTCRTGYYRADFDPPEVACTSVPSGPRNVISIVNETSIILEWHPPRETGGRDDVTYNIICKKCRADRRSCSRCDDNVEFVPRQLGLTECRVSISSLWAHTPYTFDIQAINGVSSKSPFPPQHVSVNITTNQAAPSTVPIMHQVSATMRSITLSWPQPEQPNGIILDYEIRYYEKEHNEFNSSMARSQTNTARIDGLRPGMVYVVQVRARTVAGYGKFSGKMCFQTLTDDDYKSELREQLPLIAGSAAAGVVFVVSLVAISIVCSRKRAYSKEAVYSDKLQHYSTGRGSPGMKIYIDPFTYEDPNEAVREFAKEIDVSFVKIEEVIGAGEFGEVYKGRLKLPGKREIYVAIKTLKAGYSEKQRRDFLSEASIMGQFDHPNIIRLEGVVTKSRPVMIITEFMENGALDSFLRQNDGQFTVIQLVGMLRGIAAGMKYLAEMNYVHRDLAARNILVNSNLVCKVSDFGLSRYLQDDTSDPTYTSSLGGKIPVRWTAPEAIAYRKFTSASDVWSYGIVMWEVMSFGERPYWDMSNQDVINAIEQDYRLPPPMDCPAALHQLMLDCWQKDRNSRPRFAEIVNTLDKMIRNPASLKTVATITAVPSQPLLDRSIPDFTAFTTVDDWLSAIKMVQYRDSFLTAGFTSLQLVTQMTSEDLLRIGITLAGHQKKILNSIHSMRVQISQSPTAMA
How it was run: as §1

[14] = target: T14, MAPK2(m) (Mus musculus, UniProt P63085)
T14 construct: purchased Eurofins Discovery Services (KinaseProfiler)

[15] = target: T15, CSK(h) (Homo sapiens, UniProt P41240)
T15 construct: purchased Eurofins Discovery Services (KinaseProfiler)
How it was run: as §1

[16] = target: T16, CDK2/cyclinA(h) (Homo sapiens, UniProt P24941)
T16 construct: purchased Eurofins Discovery Services (KinaseProfiler)
How it was run: as §1

[17] = target: T17, Mer(h) (Homo sapiens, UniProt Q12866)
T17 construct: purchased Eurofins Discovery Services (KinaseProfiler)
T17 sequence (Q12866 21-999): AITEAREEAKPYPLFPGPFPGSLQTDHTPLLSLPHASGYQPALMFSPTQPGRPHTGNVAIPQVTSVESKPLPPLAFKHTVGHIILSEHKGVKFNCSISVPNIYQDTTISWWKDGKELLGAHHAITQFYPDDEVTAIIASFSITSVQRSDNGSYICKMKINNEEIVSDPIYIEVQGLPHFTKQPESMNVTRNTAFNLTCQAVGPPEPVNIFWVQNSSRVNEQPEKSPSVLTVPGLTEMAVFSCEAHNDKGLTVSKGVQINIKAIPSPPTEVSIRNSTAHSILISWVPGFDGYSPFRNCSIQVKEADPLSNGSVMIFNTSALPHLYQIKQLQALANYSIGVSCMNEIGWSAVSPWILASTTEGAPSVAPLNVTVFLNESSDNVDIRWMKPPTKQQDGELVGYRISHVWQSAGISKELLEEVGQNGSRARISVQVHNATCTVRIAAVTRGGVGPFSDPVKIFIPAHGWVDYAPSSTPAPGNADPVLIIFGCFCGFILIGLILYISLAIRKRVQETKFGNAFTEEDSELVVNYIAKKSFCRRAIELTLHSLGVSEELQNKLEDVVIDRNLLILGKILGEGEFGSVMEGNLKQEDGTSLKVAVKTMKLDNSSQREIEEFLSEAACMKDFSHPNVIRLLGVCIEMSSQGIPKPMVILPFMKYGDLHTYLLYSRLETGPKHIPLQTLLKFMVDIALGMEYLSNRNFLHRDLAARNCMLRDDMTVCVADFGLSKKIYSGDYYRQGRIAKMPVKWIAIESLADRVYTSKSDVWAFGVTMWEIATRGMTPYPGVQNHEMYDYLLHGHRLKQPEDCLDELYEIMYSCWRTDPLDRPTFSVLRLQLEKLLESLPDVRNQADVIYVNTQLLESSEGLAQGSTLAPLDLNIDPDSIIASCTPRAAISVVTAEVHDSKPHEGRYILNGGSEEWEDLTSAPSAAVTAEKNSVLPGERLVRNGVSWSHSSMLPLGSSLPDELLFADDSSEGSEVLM
How it was run: as §1

[18] = target: T18, EGFR(T790M)(h) (Homo sapiens, UniProt P00533, T790M)
T18 construct: purchased Eurofins Discovery Services (KinaseProfiler)
How it was run: as §1

[19] = target: T19, TSSK3(h) (Homo sapiens, UniProt Q96PN8)
T19 construct: purchased Eurofins Discovery Services (KinaseProfiler)
How it was run: as §1

[20] = target: T20, CDK16/cyclinY(h) (Homo sapiens, UniProt Q00536)
T20 construct: purchased Eurofins Discovery Services (KinaseProfiler)
How it was run: as §1

[21] = target: T21, JAK2(h) (Homo sapiens, UniProt O60674)
T21 construct: purchased Eurofins Discovery Services (KinaseProfiler)
How it was run: as §1

[22] = target: T22, PI3 Kinase (p110a(E545K)/p85a)(h) (Homo sapiens, UniProt P42336, E545K)
T22 construct: purchased Eurofins Discovery Services (KinaseProfiler)
How it was run: as §1

[23] = target: T23, CLK2(h) (Homo sapiens, UniProt P49760)
T23 construct: purchased Eurofins Discovery Services (KinaseProfiler)
How it was run: as §1

[24] = target: T24, CLIK1(h) (Homo sapiens, UniProt Q8TDR2)
T24 construct: purchased Eurofins Discovery Services (KinaseProfiler)
How it was run: as §1

[25] = target: T25, LIMK1(h) (Homo sapiens, UniProt P53667)
T25 construct: purchased Eurofins Discovery Services (KinaseProfiler)
T25 sequence (P53667 whole entry): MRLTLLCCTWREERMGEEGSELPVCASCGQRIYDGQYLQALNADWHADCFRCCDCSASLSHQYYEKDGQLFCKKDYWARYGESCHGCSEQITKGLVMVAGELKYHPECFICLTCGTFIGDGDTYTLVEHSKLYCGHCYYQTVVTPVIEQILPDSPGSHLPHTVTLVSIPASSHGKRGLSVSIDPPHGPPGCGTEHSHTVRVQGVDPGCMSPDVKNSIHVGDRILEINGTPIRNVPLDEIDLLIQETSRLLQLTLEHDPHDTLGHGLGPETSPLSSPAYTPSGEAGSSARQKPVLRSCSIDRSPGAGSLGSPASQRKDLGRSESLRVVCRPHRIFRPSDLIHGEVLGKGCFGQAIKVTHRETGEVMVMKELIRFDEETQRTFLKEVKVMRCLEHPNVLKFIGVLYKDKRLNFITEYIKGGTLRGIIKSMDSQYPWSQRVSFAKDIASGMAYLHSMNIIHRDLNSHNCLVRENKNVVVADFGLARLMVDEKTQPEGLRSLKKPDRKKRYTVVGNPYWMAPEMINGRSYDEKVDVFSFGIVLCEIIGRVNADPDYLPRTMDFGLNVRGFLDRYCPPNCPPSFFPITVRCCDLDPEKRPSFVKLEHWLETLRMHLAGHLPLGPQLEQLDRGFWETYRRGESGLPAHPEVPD
How it was run: as §1

[26] = target: T26, STK33(h) (Homo sapiens, UniProt Q9BYT3)
T26 construct: purchased Eurofins Discovery Services (KinaseProfiler)
How it was run: as §1

[27] = target: T27, DRAK2(h) (Homo sapiens, UniProt O94768)
T27 construct: purchased Eurofins Discovery Services (KinaseProfiler)
How it was run: as §1

[28] = target: T28, Plk4(h) (Homo sapiens, UniProt O00444)
T28 construct: purchased Eurofins Discovery Services (KinaseProfiler)
How it was run: as §1

[29] = target: T29, Yes(h) (Homo sapiens, UniProt P07947)
T29 construct: purchased Eurofins Discovery Services (KinaseProfiler)
How it was run: as §1

[30] = target: T30, MARK3(h) (Homo sapiens, UniProt P27448)
T30 construct: purchased Eurofins Discovery Services (KinaseProfiler)
T30 sequence (P27448 whole entry): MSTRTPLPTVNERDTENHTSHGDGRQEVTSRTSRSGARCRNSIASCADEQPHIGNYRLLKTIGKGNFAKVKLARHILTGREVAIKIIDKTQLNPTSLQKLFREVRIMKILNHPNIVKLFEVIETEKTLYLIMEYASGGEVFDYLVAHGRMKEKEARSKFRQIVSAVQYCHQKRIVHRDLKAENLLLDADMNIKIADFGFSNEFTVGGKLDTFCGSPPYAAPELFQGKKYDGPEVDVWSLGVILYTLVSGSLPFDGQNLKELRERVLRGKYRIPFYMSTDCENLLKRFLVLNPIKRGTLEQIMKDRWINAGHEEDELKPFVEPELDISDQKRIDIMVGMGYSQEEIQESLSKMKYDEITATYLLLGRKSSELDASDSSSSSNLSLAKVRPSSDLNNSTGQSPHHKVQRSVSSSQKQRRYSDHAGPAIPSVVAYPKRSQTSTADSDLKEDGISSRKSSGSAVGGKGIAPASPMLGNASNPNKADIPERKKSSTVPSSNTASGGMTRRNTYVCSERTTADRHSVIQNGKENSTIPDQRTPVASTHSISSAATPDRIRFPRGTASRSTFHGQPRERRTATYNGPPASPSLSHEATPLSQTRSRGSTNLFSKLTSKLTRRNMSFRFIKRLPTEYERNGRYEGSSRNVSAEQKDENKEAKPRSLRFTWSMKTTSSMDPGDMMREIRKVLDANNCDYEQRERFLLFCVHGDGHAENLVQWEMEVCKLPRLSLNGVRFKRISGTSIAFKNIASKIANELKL
How it was run: as §1

[31] = target: T31, IGF-1R(h) (Homo sapiens, UniProt P08069)
T31 construct: purchased Eurofins Discovery Services (KinaseProfiler)
How it was run: as §1

[32] = target: T32, PKCγ(h) (Homo sapiens, UniProt P05129)
T32 construct: purchased Eurofins Discovery Services (KinaseProfiler)
How it was run: as §1

[33] = target: T33, CK2(h) (Homo sapiens, UniProt P68400)
T33 construct: purchased Eurofins Discovery Services (KinaseProfiler)
How it was run: as §1

[34] = target: T34, CaMKIIδ(h) (Homo sapiens, UniProt Q13557)
T34 construct: purchased Eurofins Discovery Services (KinaseProfiler)
How it was run: as §1

[35] = target: T35, Fms(Y969C)(h) (Homo sapiens, UniProt P07333, Y969C)
T35 construct: purchased Eurofins Discovery Services (KinaseProfiler)
How it was run: as §1

[36] = target: T36, MAP4K4(h) (Homo sapiens, UniProt O95819)
T36 construct: purchased Eurofins Discovery Services (KinaseProfiler)
How it was run: as §1

[37] = target: T37, CK1γ2(h) (Homo sapiens, UniProt P78368)
T37 construct: purchased Eurofins Discovery Services (KinaseProfiler)
T37 sequence (P78368 whole entry): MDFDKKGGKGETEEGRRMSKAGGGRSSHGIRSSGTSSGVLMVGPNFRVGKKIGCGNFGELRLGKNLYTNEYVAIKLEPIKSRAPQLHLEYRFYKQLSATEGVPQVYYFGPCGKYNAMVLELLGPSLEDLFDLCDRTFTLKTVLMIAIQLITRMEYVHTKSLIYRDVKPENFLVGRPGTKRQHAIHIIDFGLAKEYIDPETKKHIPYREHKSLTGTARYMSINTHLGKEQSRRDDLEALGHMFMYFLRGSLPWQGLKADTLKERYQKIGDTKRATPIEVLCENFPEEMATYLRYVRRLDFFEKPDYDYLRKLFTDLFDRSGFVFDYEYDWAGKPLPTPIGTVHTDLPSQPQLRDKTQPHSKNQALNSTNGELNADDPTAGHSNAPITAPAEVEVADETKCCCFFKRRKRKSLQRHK
How it was run: as §1

Work on `COc1cc(OC)cc(N(CCN[C@H](C)CO)c2ccc3ncc(-c4cnn(C)c4)c(=O)n3c2)c1` [RK-019, (R)-7-((3,5-dimethoxyphenyl) (2-((1-hydroxypropan-2-yl)amino)ethyl)amino)-3-(1-methyl-1H-pyrazol-4-yl)-4H-pyrido [1,2-a]pyrimidin-4-one] yielded an activity at 1 µM [1] of 99%, an activity at 1 µM [2] of 87% and an activity at 1 µM [3] of 113%. For the same molecule, the activity at 1 µM [4] was 121%, the activity at 1 µM [5] was 87% and the activity at 1 µM [6] was 103%. For the same molecule, the activity at 1 µM [7] was 99%, the activity at 1 µM [8] was 91% and the activity at 1 µM [9] was 16%. For the same molecule, the activity at 1 µM [10] was 46%, the activity at 1 µM [11] was 85% and the activity at 1 µM [12] was 115%. It also gave an activity at 1 µM [13] of 58%, an activity at 1 µM [14] of 109% and an activity at 1 µM [15] of 94%. It also gave an activity at 1 µM [16] of 115%, an activity at 1 µM [17] of 108% and an activity at 1 µM [18] of 90%. For the same molecule, the activity at 1 µM [19] was 102%, the activity at 1 µM [20] was 108% and the activity at 1 µM [21] was 106%. For the same molecule, the activity at 1 µM [22] was 100%, the activity at 1 µM [23] was 107% and the activity at 1 µM [24] was 102%. The activity at 1 µM [25] was 103%, the activity at 1 µM [26] was 98% and the activity at 1 µM [27] was 96%. The activity at 1 µM [28] was 91%, the activity at 1 µM [29] was 29% and the activity at 1 µM [30] was 80%. For the same molecule, the activity at 1 µM [31] was 104%, the activity at 1 µM [32] was 92% and the activity at 1 µM [33] was 112%. The activity at 1 µM [34] was 108%, the activity at 1 µM [35] was 31% and the activity at 1 µM [36] was 82%. The activity at 1 µM [37] was 97%.
